Measured values: PubChem BioAssay (NCI)
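Assay format: 96-well plates, 48-hour exposure. Definition used: TGI = concentration required for complete inhibition of growth.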

Key:
Assay in all cases: NCI anticancer screen, dose series, 48 h
[1] = test system: XF 498 CNS
[2] = test system: NCI-H522 lung
[3] = test system: SF-268 CNS
[4] = test system: A498 renal
[5] = test system: HL-60(TB) leukemia
[6] = test system: NCI-H23 lung
[7] = test system: SF-539 CNS
[8] = test system: RXF 393 renal
[9] = test system: SF-295 CNS
[10] = test system: OVCAR-5 ovarian
[11] = test system: NCI-H460 lung
[12] = test system: LOX IMVI melanoma
[13] = test system: SW-620 colon
[14] = test system: K-562 leukemia
[15] = test system: UACC-257 melanoma
[16] = test system: CAKI-1 renal
[17] = test system: RPMI-8226 leukemia
[18] = test system: IGROV1 ovarian
[19] = test system: HOP-92 NSCLC
[20] = test system: HOP-62 NSCLC
[21] = test system: OVCAR-3 ovarian
[22] = test system: DMS 114 small cell lung
[23] = test system: DLD-1 colon
[24] = test system: LXFL 529 NSCLC
[25] = test system: KM12 colon
[26] = test system: SNB-19 CNS
[27] = test system: 786-0 renal
[28] = test system: MALME-3M melanoma
[29] = test system: U251 CNS
[30] = test system: HT29 colon
[31] = test system: SK-MEL-28 melanoma
[32] = test system: SNB-75 CNS
[33] = test system: OVCAR-4 ovarian
[34] = test system: M14 melanoma
[35] = test system: NCI-H226 lung
[36] = test system: SN12C renal
[37] = test system: A549 NSCLC
[38] = test system: SR leukemia
[39] = test system: ACHN renal
[40] = test system: TK-10 renal
[41] = test system: EKVX NSCLC
[42] = test system: CCRF-CEM leukemia
[43] = test system: SK-MEL-5 melanoma
[44] = test system: SK-OV-3 ovarian
[45] = test system: KM20L2 colon
[46] = test system: UACC-62 melanoma
[47] = test system: M19-MEL melanoma
[48] = test system: OVCAR-8 ovarian
[49] = test system: HCT-116 colon
[50] = test system: HCC-2998 colon
[51] = test system: HCT-15 colon
[52] = test system: COLO 205 colon
[53] = test system: HOP-18 NSCLC
[54] = test system: UO-31 renal

Measured: TGI

CCc1cccc(C(C)C)c1NC(=O)C(=O)C1C(=O)NC(=O)NC1=O
> 100 µM: all assays above
